Data as given in patent publication US10072304B2, “Nuclear localization of Src-family tyrosine kinases is required for growth factor-induced euchromatinization” (National University Corporation Chiba University, priority 2009, dated 2018).
Entries after “also recorded” stand apart in the source; their conditions may differ.

Legend:
SYF cells [1] = assay: Anti-pTyr immunofluorescent staining of tyrosine phosphorylation in SYF cells; assay type: cell-based, mouse; settings: 3 mM Na3VO4 for 3 h, FIG. 46
Method: (§1) COS-1, HeLa cells (Japanese Collection of Research Bioresources, Osaka), MCF-7 (provided by H. Saya), A431 (provided by M. N. Fukuda), HEK293 (provided by M. Tagawa), HCT116 (provided by T. Tomonaga), and SYF ([37]; provided by M. Okada and S. Nada) cells were cultured in Iscove's modified DME containing 5% fetal bovine serum (FBS). Cells were transiently transfected with 0.5 μg of plasmid vector using Trans IT Transfection reagent (Mirus) or with 1 μg of plasmid vector using linear polyethylenimine (25 kDa) (Polyscience, Inc.). For growth factor stimulation, COS-1 cells were starved under low serum conditions (0.05% FBS) for 24 h and restimulated with serum (5% FBS). […]
(§2) Confocal and Nomarski differential-interference-contrast images were obtained using a Fluoview FV500 confocal laser scanning microscope with a 40×1.00 NA oil and a 100×1.35 NA oil immersion objective (Olympus, Tokyo) and an LSM 510 confocal laser scanning microscope with a 63×1.40 NA oil immersion objective (Zeiss), as described. […] Emission signals were detected between 505 and 525 nm for fluorescein, at more than 560 nm for rhodamine and more than 610 nm for PI [44]. […] Fluorescence intensity plots of anti-histone H3K4me3, anti-ATF-2 pT69/71 and anti-HP1α antibody and PI staining (see FIGS. 18B, 19B, and 20B, respectively) were generated using Fluoview version 4.3 software (Olympus, Tokyo). […]

SYF cells [2] = assay: Quantitation of chromatin condensation levels (S.D. value of PI intensity per pixel) in SYF cells; assay type: cell-based, mouse; settings: 3 mM Na3VO4 for 3 h
Method: as §1, §2

COS-1 cells = assay: Anti-pTyr immunofluorescent staining of tyrosine phosphorylation in COS-1 cells; assay type: cell-based, monkey
Method: COS-1, HeLa cells (Japanese Collection of Research Bioresources, Osaka), MCF-7 (provided by H. Saya), A431 (provided by M. N. Fukuda), HEK293 (provided by M. Tagawa), HCT116 (provided by T. Tomonaga), and SYF ([37]; provided by M. Okada and S. Nada) cells were cultured in Iscove's modified DME containing 5% fetal bovine serum (FBS). Cells were transiently transfected with 0.5 μg of plasmid vector using Trans IT Transfection reagent (Mirus) or with 1 μg of plasmid vector using linear polyethylenimine (25 kDa) (Polyscience, Inc.). For growth factor stimulation, COS-1 cells were starved under low serum conditions (0.05% FBS) for 24 h and restimulated with serum (5% FBS). For stimulation of endogenous SFKs, cells were treated with 3 mM Na3VO4 for 3 h, and SFK-mediated tyrosine phosphorylation was verified by treatment with 10 μM PP2 (SFK inhibitor; Calbiochem) or 100 nM wortmannin (PI3K inhibitor; Alomone Labs) for 21 h before Na3VO4 treatment. Na3VO4 was dissolved at 500 mM in 500 mM unbuffered HEPES before use. For preparation of stable transfectant clones, SYF cells transfected with c-Src-wt or Lyn-wt were selected in 333 μg/mL Zeocin (Invitrogen), and COS-1 cells were transfected with the BOSH2BGFP-N1 vector, which encodes GFP-tagged histone H2B ([39,40]; provided by H. Saya), were selected in 3 μg/mL blasticidin.
Confocal and Nomarski differential-interference-contrast images were obtained using a Fluoview FV500 confocal laser scanning microscope with a 40×1.00 NA oil and a 100×1.35 NA oil immersion objective (Olympus, Tokyo) and an LSM 510 confocal laser scanning microscope with a 63×1.40 NA oil immersion objective (Zeiss), as described. One planar (xy) section slice (0.6-μm thickness) is shown in all experiments. In brief, cells were fixed with 4% paraformaldehyde for 20 min, and permeabilized in phosphate-buffered saline (PBS) containing 0.1% saponin and 3% bovine serum albumin at room temperature. Cells were subsequently reacted with an appropriate primary antibody for 1 h, washed with PBS containing 0.1% saponin, stained with FITC- or TRITC-conjugated secondary antibody for 1 h. For DNA staining, cells were subsequently treated with 200 μg/ml RNase A for 1 h and 20 μg/ml propidium iodide (PI) for 30 min, and mounted with Prolong Antifade™ reagent (Molecular Probes). To ensure no bleed-through from the fluorescein signal into the red channel, fluorescein and rhodamine were independently excited at 488 nm and 543 nm, respectively. PI was excited at 488 or 543 nm. Emission signals were detected between 505 and 525 nm for fluorescein, at more than 560 nm for rhodamine and more than 610 nm for PI [44]. Composite figures were prepared using Photoshop 5.0 and Illustrator 9.0 software (Adobe). For nuclear staining with anti-pTyr, anti-ATF-2 pT69/71, and anti-histone H3K4me3 antibodies, cells were in situ extracted with 0.5% Triton X-100 at 4° C. for 3 min before fixation with 4% paraformaldehyde. For HP1α staining, cells were fixed in 100% methanol at −20° C. for 10 min followed by permeabilization for 30 min in PBS containing 0.1% Triton X-100 at room temperature. Cells were reacted with anti-HP1α antibody for 1 h at room temperature, washed with PBS four times, and stained with secondary antibody for 1 h. Fluorescence intensity plots of anti-histone H3K4me3, anti-ATF-2 pT69/71 and anti-HP1α antibody and PI staining (see FIGS. 18B, 19B, and 20B, respectively) were generated using Fluoview version 4.3 software (Olympus, Tokyo). […]

SMILES | tyrosine phosphorylation (SYF cells [1]) | levels of chromatin hypo- and hypercondensation (SYF cells [2]; SYF cells, FIG. 49) | chromatin hypo- and hypercondensation (SYF cells [2]; SYF/c-Src-wt cells, FIGS. 48A and 49) | tyrosine phosphorylation throughout the cell (COS-1 cells; 3 mM Na3VO4 for 3 h, FIG. 23) | tyrosine phosphorylation within the nucleus (COS-1 cells; Na3VO4, in situ extraction with 0.5% Triton X-100 before fixation, FIGS. 24 and 25) | basal levels of tyrosine phosphorylation (COS-1 cells; 10 μM PP2 or 100 nM wortmannin for 24 h, FIG. 22) | tyrosine phosphorylation in Na3VO4-treated cells (COS-1 cells; 10 μM PP2 pretreatment 21 h, then 3 mM Na3VO4 3 h, FIG. 23) | Na3VO4-induced increase in nuclear tyrosine phosphorylation (COS-1 cells; PP2 plus Na3VO4, in situ extraction with 0.5% Triton X-100, FIGS. 24 and 25)
[Na+].[Na+].[Na+].[O]=[V]([O-])([O-])[O-] [Na3VO4, sodium orthovanadate] | increased tyrosine phosphorylation at levels comparable to those in COS-1 cells | much lower than those in Na3VO4-treated COS-1 cells; also recorded: modestly induced | an increase | greatly increased | increase in tyrosine phosphorylation induced by Na3VO4 was clearly visible | – | – | –
CC(C)(C)n1nc(-c2ccc(Cl)cc2)c2c(N)ncnc21 [PP2] | – | – | – | – | – | significantly reduce | decreased | significantly inhibited
